Reference: patent US9161951B2, “Parenteral nutrition composition containing iron” (priority 2005, dated 2015)

What was measured:
[1] = patients receiving TPN, 87.5-175 mg/week iron i.v., 3 week period; cited from earlier work
[2] = in vivo; cited from earlier work
[3] = single parenteral nutrition component; cited from earlier work
iron deficiency anemia = details: 15 mg in PN admixture i.v. over 6 hours every day, 3 months
Excerpt: A patient with a history of bowel resection, secondary to inflammatory bowel disease is currently receiving TPN therapy at home. The patient develops iron deficiency anemia, secondary to ongoing bloody diarrhea and malabsorption of iron. The patient is unable to take iron supplements by mouth due to bloating and diarrhea.

For iron dextran, the “effect on serum iron levels” value [1] is listed as “effectively raised serum iron levels”.

For `O=P([O-])([O-])OP(=O)([O-])[O-].[Sn+2].[Sn+2]` [stannous pyrophosphate], the reported adverse effects [2] is listed as “cause hypocalcemia and immediate toxic effects”.

For `O=C([O-])CC(O)(CC(=O)O)C(=O)[O-].[Fe+2]` [ferrous citrate], the “duration of compatibility with amino acid solution” value [3] is listed as 1 days.

With “soluble ferric pyrophosphate [soluble FePPi]” the “correction of iron deficiency anemia” value (iron deficiency anemia) was “effectively corrects iron deficiency anemia”.
